From article PMC7698453, “4-Benzyloxylonchocarpin and Muracatanes A-C from Ranunculus muricatus L. and Their Biological Effects” (Biomolecules, 2020) come the findings set out here.

Series [1] in a line: Sulforhodamine B cytotoxicity assay, HT29. The format is cell-based. The settings on record: human, HT29 colorectal adenocarcinoma cells; SRB assay, tested 1-30 µM. On the procedure: (§1) The cytotoxicity of the natural products was screened by using the sulforhodamine-B (Kiton Red S, ABCR, Karlsruhe, Germany) in micro culture colorimetric assay using 96-well plates with the seeding of the cells on day 0 applying appropriate cell densities to prevent confluence of the cells during the period of the experiment. On day 1, the cells were treated with six different concentrations (1, 3, 7, 12, 20 and 30 µM); thereby, the final concentration of DMSO was always ≤ 0.5%, generally regarded as non-toxic to the cells. On day 4, the supernatant medium was discarded; the cells were fixed with 10 % trichloroacetic acid. After another day at 4 °C, the cells were washed in a strip washer and dyed with the SRB solution (100 µL, 0.4% in 1% acetic acid) for about 20 min and this was followed by washing of the plates (four times, 1% acetic acid) and air-drying overnight. Furthermore, tris base solution (200 µL, 10 mM) was added to each well and absorbance was measured at λ = 570 nm employing a reader (96 wells, Tecan Spectra, Crailsheim, Germany).
(In general: Sulforhodamine B stains cellular protein and so reports cell mass.)

In series [2] the target is T1, BChE (from equine serum) (Equus caballus, UniProt P81908).
T1 construct: BChE (from equine serum); purchased Merck (Darmstadt, Germany); host or cells: equine serum
The series can be described thus: Cholinesterase assay (Ellman's method), BChE. The format is biochemical. The conditions noted are these: for inhibition at 10 µM: read-out: BChE % Inhibition. On the procedure: (§2) A solution of tris(hydroxymethyl)-aminomethane (606 mg) in twice-distilled water (100 mL) was adjusted to a pH of 8.0 ± 0.1 with HCl to get a 50 mM Tris-HCl buffer solution. The AChE solution holding 2.005 U/mL was prepared by dissolving the enzyme (271 U/mg, 0.037 mg) in freshly prepared buffer pH 8.0 (5 mL) comprising extra NaN3 (0.98 mg), and for the BChE solution with the concentration of 2.040 U/mL: the enzyme (7.54 U/mg, 1.353 mg) was dissolved in freshly prepared buffer pH 8.0 (5 mL) comprising NaN3 (0.98 mg). The DTNB solution with the concentration of 3 mM was prepared by dissolving DTNB (23.8 mg) in buffer pH 8.0 (20 mL) and this was followed by the addition of MgCl2 (38.0 mg) and NaCl (116.8 mg). The ATChI solution with the concentration of 15 mM was prepared by dissolving ATChI (43.4 mg) in twice-distilled water (10 mL). Furthermore, all solutions were stored in Eppendorf tubes in the refrigerator or freezer. […] The final concentrations for the enzymatic assays were obtained by diluting the stock solution with twice-distilled water.
(§3) A mixture of the tested natural product solutions (25 µL, 3 different concentrations and one blank), DTNB solution (125 μL) and enzyme solution (25 μL, AChE or BChE) was incubated at 30 °C for 20 min in 96-well microplates followed by the addition of the substrate (25 μL, at 4 different concentrations). The final substrate concentrations were as follows: [ATChI] = 0.9375 mM, 0.625 mM, […], and 0.1875 mM. Moreover, the absorbance (λ = 415 nm) was measured at 30 °C for 30 min at 1 min intervals. […] Ki and Ki’ were deduced from Lineweaver–Burk, Dixon, and Cornish–Bowden plots as well as the mode of inhibtion. The relative inhibition was deduced as the quotient of the slopes (compound divided by blank) of the linear ranges. The concentration of each compound was 10 µM while the concentration was ATChI = 0.625 mM.
Background: DTNB colorimetry detects thiols as they appear.

Series [3] can be described thus: Sulforhodamine B cytotoxicity assay, MCF7. The series is classed as cell-based. The conditions noted are these: human, MCF7 breast cancer cells; SRB assay, tested 1-30 µM. On the procedure:
as §1

Series [4] in a line: Sulforhodamine B cytotoxicity assay, FaDu. The format is cell-based. The settings on record: human, FaDu pharynx carcinoma cells; SRB assay, tested 1-30 µM. On the procedure:
as §1

Series [5] can be described thus: Sulforhodamine B cytotoxicity assay, A2780. The series is classed as cell-based. The settings on record: human, A2780 ovarian carcinoma cells; SRB assay, tested 1-30 µM. On the procedure:
as §1

Series [6] addresses T2, AChE (from Electrophorus electricus) (Electrophorus electricus, UniProt O42275).
T2 construct: purchased Merck (Darmstadt, Germany)
The series can be described thus: biochemical. The series is classed as biochemical. The conditions noted are these: for inhibition at 10 µM: at concentration of 10 µM, ATChI 0.625 mM. On the procedure:
as §2, §3

Series [7] in a line: Sulforhodamine B cytotoxicity assay, SW1736. The format is cell-based. The settings on record: human, SW1736 thyroid carcinoma cells; SRB assay, tested 1-30 µM. On the procedure: as §1
The target in series [8] is T3, α-Glucosidase type I (EC 3.2.1.20 from Saccharomyces cerevisiae) (Saccharomyces cerevisiae, UniProt P53341).
T3 construct: purchased Sigma-Aldrich (St. Louis, MO, USA)
The series can be described thus: α-Glucosidase assay (p-NPG substrate). The format is biochemical. The settings on record: for inhibition at 10 µM: at concentration of 10 µM. On the procedure: The α-glucosidase assay was applied to pure natural product 3 according to the protocol described by Schmidt and co-workers. In short, the assays were performed in 96-well microplates using a Multiskan FC microplate photometer (Thermo Fisher Scientific, Waltham, MA, USA) controlled by SkanIt 2.5.1 software (Thermo Fisher Scientific, Waltham, MA, USA) with final volumes of 200 µL in each well. A phosphate buffer (100 mM) was prepared by dissolving 2.65 g sodium dihydrogen phosphate dihydrate, 4.70 g disodium hydrogen phosphate, and 0.10 g sodium azide in 500 mL Milli-Q water and adjusting the pH to 7.5. […] The microplate was shaken for 2 min, and incubated for 10 min at 28 °C. Then, 20 µL of p-NPG substrate (10 mM, 60.2 mg in 20 mL buffer) was added to each well to initiate the reaction. The enzyme activity (expressed as cleavage rate ΔAU/s) was determined by measuring the absorbance at 405 nm every 30 s for 35 min, and percentage inhibition was calculated according to the equation: Percent inhibition=Slope(blank)−Slope(sample)/Slope(blank)× 100% where slopeblank is the enzyme activity of the wells containing buffer, enzyme, and substrate and slopesample is the enzyme activity in the wells containing buffer, enzyme, substrate, and sample.

The mark [9] stands for this setting: Ki' (mixed-mode inhibition), from Lineweaver–Burk, Dixon and Cornish–Bowden plots.

Structures are written as SMILES. Where a name gives a salt, the structure may show the parent alone. Read-outs that look alike come from different tables or passages of the source. Bounds are passed on as bounds.

T1 sequence (P81908 whole entry): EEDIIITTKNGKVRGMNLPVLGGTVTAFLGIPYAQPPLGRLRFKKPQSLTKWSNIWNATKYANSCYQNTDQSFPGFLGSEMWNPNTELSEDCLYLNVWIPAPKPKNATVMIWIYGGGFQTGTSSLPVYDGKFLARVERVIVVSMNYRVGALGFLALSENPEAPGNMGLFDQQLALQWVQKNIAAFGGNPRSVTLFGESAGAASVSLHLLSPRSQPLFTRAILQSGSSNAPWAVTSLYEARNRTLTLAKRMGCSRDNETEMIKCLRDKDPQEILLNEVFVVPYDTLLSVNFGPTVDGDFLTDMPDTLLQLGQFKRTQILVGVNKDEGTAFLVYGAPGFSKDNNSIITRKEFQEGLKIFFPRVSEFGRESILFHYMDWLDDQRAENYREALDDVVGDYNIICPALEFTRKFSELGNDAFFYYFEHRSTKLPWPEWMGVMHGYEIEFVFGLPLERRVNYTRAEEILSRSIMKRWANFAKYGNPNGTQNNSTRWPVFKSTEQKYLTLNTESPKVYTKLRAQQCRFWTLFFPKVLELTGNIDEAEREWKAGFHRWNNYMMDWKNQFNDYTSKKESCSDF
T2 sequence (O42275 24-633): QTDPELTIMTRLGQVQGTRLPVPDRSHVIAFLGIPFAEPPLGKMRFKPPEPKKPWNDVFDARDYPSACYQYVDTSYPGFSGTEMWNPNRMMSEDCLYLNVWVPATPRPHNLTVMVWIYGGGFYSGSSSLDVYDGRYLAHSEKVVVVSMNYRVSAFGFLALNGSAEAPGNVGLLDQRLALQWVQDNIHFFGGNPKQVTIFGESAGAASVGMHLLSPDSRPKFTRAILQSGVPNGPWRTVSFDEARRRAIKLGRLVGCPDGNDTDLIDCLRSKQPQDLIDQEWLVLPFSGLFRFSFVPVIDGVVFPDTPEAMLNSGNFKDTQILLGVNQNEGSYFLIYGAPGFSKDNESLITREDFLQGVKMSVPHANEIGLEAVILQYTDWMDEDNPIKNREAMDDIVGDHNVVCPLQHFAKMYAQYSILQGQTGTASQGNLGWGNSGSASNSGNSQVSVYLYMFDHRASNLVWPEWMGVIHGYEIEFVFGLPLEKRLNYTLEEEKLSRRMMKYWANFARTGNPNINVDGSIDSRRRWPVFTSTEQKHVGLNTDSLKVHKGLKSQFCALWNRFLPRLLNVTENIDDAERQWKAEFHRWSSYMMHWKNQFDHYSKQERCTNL
T3 sequence (P53341 whole entry): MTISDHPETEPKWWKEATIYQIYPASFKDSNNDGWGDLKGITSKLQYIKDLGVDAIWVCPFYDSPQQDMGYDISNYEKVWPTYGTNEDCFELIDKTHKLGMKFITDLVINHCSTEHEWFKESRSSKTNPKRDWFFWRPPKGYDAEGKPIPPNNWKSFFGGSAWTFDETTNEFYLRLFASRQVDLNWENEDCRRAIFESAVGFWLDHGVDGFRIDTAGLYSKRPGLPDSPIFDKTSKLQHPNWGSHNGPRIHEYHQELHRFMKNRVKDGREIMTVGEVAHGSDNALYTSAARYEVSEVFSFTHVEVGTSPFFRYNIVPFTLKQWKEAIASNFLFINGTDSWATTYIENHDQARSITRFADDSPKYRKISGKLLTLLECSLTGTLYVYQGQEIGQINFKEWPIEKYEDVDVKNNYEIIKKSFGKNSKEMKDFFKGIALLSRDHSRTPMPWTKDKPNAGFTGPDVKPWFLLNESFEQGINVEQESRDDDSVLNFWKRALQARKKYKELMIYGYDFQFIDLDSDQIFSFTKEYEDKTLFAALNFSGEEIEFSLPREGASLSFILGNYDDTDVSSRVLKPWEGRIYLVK

For the compound `CC1(C)C=Cc2c(ccc(C(=O)/C=C/c3ccc(OCc4ccccc4)cc3)c2O)O1` [Compound 1, (E)-3-(4-(benzyloxy)phenyl)-1-(5-hydroxy-2,2-dimethyl-2H-chromen-6-yl)prop-2-en-1-one], the IC50 at 3 days in series [1], in series [3], in series [4], in series [5] and in series [7] was over 30 µM each time. Besides, the inhibition (in general, the share of the control response that was lost under treatment) at 10 µM turned out to be 27.3% in series [2] (at concentration of 10 µM) and 97.4% in series [6]. Besides, the “mode of inhibition of AChE” value in series [6] is given as “mixed-mode type inhibitor”. Further, the “AChE Ki'” value in series [6] (setting [9]) stood at 3.54 ± 0.24 µM. In addition, the Ki (usually a dissociation constant, usually derived from enzyme kinetics or from competition with a known ligand) was found to be 3.54 µM in series [6] (setting [9]); 5.39 ± 0.51 µM in series [6] (from Lineweaver–Burk, Dixon and Cornish–Bowden plots).

Take `O=C1c2ccc(O)cc2C(=O)c2c(O)ccc(O)c21` [Compound 3, 1,4,6-trihydroxyanthracene-9,10-dione]: the IC50 at 3 days in series [1], in series [3], in series [4], in series [5] and in series [7] was over 30 µM throughout. Also, the IC50 (usually the midpoint of a concentration-inhibition curve) in series [8] is 164 ± 83 µM. The compound also yielded an inhibition at 10 µM in series [8] of 80.4%.

`COc1ccc(/C=C/C(=O)c2ccc3c(c2O)C=CC(C)(C)O3)cc1` [Compound 5, 4-methoxylonchocarpin]: the IC50 at 3 days in series [1] was 20.2 µM; in series [3] it was 23.7 µM; in series [4], over 30 µM; in series [5], 25.4 µM; in series [7], 26.2 µM. In addition, the inhibition at 10 µM was found to be 8.7% in series [2] (at concentration of 10 µM), 36.1% in series [8] and 49.9% in series [6].

For `COC(=O)C(Cc1ccc2c(c1OC)C(=O)c1cccc(OC)c1C2=O)C(=O)OC` [Compound 2, dimethyl 2-((1,5-dimethoxy-9,10-dioxo-9,10-dihydroanthracen-2-yl)methyl)malonate], the concentration for half-maximal inhibition (IC50) at 3 days in series [1], in series [3], in series [4], in series [5] and in series [7] was over 30 µM each time. 10 µM produced 13.4% inhibition in series [8].

With `COc1ccc2c3c1O[C@H]1C[C@@H](O)C=C[C@@]31CCN(C)C2` [GH, Galantamine hydrobromide, reference compound], the inhibition at 10 µM in series [2] was determined as 54.8%. For the same compound, the “mode of inhibition of BChE” value in series [2] (results not shown) is reported as “competitive inhibitor”.
